Results as given in ChEMBL document CHEMBL5120859, “Optimization of 4-arylthiophene-3-carboxylic acid derivatives as inhibitors of ANO1: Lead optimization studies toward their analgesic efficacy for inflammatory pain” (Eur J Med Chem, 2022).
The source made the active and inactive calls. The rule behind the calls is not given here.

Experiments:
[1] = Ratio of drug concentration in brain to plasma in C57BL/6 mouse at 40 mg/kg,IG measured after 24 hrs by HPLC analysis; type: ADME, organism-based; conditions: po
[2] = Ratio of drug concentration in brain to plasma in C57BL/6 mouse at 40 mg/kg,IG measured after 6 hrs by HPLC analysis; type: ADME, organism-based; conditions: po
[3] = molecular target: Sodium channel protein type 7 subunit alpha (Homo sapiens) (UniProt Q01118); test: Inhibition of Nav1.7 (unknown origin) in resting condition at 30 uM by whole cell patch clamp electrophysiology relative to control
[4] = Plasma concentration in C57BL/6 mouse at 40 mg/kg,IG measured after 6 hrs by HPLC analysis; type: ADME, organism-based; conditions: po
[5] = Brain concentration in C57BL/6 mouse at 40 mg/kg,IG measured after 6 hrs by HPLC analysis; type: ADME, organism-based; conditions: po, read-out: Ct
[6] = Cmax in C57BL/6 mouse at 80 mg/kg,IG measured upto 24 hrs by HPLC-MS/MS analysis; type: ADME, organism-based; design: dose 80 mg/kg, time < 24 hrs, route ig; conditions: in vivo, po
[7] = MRT (0 to t) in C57BL/6 mouse at 40 mg/kg,IG measured upto 24 hrs by HPLC-MS/MS analysis; type: ADME, organism-based; conditions: in vivo, po
[8] = molecular target: Voltage-gated potassium channel, KQT; KCNQ2(Kv7.2)/KCNQ3(Kv7.3) (Homo sapiens) (UniProt O43526+O43525); test: Inhibition of KCNQ2/3 (unknown origin) at a holding potential -40 mV at 30 uM by whole cell patch clamp electrophysiology relative to control
[9] = AUC (0 to t) in C57BL/6 mouse at 80 mg/kg,IG measured upto 24 hrs by HPLC-MS/MS analysis; type: ADME, organism-based; design: dose 80 mg/kg, time < 24 hrs, route ig; conditions: in vivo, po
[10] = Cmax in C57BL/6 mouse at 40 mg/kg,IG measured upto 24 hrs by HPLC-MS/MS analysis; type: ADME, organism-based; design: dose 40 mg/kg, time < 24 hrs, route ig; conditions: in vivo, po
Anoctamin-2 = molecular target: T1, Anoctamin-2 (Homo sapiens, UniProt Q9NQ90); test: Inhibition of human ANO2 expressed in HEK293 cells incubated for 5 mins by whole cell patch clamp electrophysiology; type: cell-based
T1 sequence (Q9NQ90 whole entry): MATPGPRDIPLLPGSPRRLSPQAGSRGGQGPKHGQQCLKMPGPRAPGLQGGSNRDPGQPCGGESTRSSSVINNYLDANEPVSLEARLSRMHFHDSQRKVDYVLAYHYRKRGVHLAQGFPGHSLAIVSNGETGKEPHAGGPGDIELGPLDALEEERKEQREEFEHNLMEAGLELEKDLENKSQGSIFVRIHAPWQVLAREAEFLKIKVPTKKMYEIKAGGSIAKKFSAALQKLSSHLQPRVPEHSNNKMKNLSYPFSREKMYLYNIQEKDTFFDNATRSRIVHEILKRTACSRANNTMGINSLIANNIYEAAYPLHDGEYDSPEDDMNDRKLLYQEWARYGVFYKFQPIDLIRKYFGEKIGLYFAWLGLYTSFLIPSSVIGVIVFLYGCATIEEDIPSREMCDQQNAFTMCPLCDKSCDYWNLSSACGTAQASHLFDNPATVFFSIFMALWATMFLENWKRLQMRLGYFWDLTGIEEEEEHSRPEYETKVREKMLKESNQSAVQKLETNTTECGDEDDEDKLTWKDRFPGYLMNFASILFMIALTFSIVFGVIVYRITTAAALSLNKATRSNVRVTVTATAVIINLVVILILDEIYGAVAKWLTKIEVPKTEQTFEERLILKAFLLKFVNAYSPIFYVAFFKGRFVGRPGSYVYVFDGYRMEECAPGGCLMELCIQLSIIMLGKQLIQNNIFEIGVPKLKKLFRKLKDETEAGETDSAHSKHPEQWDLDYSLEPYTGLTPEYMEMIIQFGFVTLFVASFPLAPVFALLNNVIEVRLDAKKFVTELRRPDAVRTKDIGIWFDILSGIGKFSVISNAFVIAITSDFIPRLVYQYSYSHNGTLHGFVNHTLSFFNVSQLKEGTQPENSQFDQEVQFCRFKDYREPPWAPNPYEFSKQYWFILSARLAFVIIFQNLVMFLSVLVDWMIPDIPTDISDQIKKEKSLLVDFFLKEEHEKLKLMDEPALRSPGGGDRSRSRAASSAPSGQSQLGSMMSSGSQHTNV

[11] = Acute toxicity in C57BL/6 mouse assessed as toxic symptoms at 1000 mg/kg,po measured after 24 hrs; type: organism-based; conditions: in vivo
[12] = molecular target: T2, Anoctamin-2 (Homo sapiens) (UniProt Q9NQ90); test: Inhibition of human ANO2 expressed in HEK293 cells at 30 uM incubated for 5 mins by whole cell patch clamp electrophysiology relative to control; type: cell-based
T2 sequence (whole entry): T1 sequence (Q9NQ90 whole entry)

[13] = Brain concentration in C57BL/6 mouse at 40 mg/kg,IG measured after 0.25 hrs by HPLC analysis; type: ADME, organism-based; conditions: po, read-out: Ct
Mus musculus [14] = test: Analgesic activity in C57BL/6 mouse model of capsaicin-induced allodynia assessed as reduction on foot licking pain response at 80 mg/kg,po measured after 5 mins; type: functional, organism-based
Mus musculus [15] = test: Analgesic activity in C57BL/6 mouse model of formalin-induced allodynia assessed as reduction on foot licking pain response at 40 to 80 mg/kg,po measured after 10 mins; type: functional, organism-based; conditions: dose 40-80 mg/kg
[16] = Plasma concentration in C57BL/6 mouse at 40 mg/kg,IG measured after 0.25 hrs by HPLC analysis; type: ADME, organism-based; conditions: po
[17] = Bioavailability in C57BL/6 mouse at 80 mg/kg,IG measured upto 24 hrs by HPLC-MS/MS analysis; type: ADME, organism-based; conditions: in vivo, po

Sodium channel protein type 7 subunit alpha (Homo sapiens), sequence (Q01118 whole entry): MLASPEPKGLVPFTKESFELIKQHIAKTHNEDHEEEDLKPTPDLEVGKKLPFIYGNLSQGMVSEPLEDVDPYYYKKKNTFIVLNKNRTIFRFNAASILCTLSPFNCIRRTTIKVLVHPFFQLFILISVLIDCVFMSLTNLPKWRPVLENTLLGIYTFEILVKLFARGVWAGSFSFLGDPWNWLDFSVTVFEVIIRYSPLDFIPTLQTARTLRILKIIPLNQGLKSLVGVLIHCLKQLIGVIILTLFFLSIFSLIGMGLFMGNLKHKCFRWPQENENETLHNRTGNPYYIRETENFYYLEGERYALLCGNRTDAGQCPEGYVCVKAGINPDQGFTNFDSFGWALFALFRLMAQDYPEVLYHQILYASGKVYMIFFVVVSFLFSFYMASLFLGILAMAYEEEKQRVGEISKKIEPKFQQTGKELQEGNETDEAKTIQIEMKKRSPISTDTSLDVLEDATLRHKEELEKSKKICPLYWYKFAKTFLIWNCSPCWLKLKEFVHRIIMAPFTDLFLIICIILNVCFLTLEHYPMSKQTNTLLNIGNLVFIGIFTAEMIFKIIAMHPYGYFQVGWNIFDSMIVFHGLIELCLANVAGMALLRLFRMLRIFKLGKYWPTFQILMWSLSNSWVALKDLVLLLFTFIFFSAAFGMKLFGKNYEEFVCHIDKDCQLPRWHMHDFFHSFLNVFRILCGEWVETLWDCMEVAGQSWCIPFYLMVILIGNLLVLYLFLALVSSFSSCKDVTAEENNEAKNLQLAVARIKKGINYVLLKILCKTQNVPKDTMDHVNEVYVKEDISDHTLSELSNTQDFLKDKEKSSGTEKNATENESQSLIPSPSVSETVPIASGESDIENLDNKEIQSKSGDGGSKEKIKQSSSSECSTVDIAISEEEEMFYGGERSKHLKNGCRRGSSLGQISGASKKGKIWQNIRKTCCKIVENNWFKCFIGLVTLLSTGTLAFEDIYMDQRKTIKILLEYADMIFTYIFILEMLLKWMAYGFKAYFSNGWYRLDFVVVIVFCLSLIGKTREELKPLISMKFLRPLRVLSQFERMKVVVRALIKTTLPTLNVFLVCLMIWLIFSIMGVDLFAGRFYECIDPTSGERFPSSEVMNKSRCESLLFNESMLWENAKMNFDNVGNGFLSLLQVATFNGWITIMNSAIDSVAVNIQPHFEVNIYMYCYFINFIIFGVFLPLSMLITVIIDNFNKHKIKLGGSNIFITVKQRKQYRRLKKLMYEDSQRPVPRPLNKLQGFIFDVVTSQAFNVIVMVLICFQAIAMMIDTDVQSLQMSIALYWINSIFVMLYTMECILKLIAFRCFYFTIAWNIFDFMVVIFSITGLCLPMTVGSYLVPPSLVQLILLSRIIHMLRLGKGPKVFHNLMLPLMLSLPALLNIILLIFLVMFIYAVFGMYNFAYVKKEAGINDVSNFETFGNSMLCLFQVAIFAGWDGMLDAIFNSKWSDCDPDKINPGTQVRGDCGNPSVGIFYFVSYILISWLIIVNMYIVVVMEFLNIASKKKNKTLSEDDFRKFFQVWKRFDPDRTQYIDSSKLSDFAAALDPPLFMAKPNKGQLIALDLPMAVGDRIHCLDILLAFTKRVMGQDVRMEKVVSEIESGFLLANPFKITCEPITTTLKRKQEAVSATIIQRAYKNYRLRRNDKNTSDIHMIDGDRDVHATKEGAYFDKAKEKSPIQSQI

SMILES: O=C(Nc1scc(-c2ccc(Cl)cc2)c1C(=O)O)c1cc(F)ccc1F
- Ratio [1]: 4.5%
- Ratio [2]: 1.4%
- inhibition [3]: 4.4%
- concentration at 6 h [4]: 24.3 µg/mL
- concentration at 6 h [5]: 337 ng/g
- Cmax [6]: 130 µg/mL
- MRT last at 24 h [7]: 5.4 h
- inhibition [8]: 21.4%
- AUC(0-t) at 24 h [9]: 596 µg·h/mL
- Cmax [10]: 97.7 µg/mL
- IC50 (Anoctamin-2): 8.7 µM
- Activity [11]: Non-Toxic
- inhibition [12]: 72.8%
- concentration at 0.25 h [13]: 1440 ng/g
- Activity (Mus musculus [14]): Active
- Activity (Mus musculus [15]): Active
- concentration at 0.25 h [16]: 97.7 µg/mL
- bioavailability [17]: 85.1%
